Assays:
Type in all cases: in vivo, mice
[1] = system: PANC-05-04 xenograft tumors; test: PANC-05-04 pancreatic tumor xenograft, Example 7; conditions: Palbociclib 130 mg/kg PO QD
Procedure: (§1) The compound of the disclosure was evaluated in a couple of different pancreatic tumor xenograft models: PANC-05-04 and BXPC-3.

HCC4006 xenograft tumors = test: HCC4006 lung tumor xenograft, Example 3; conditions: Palbociclib 130 mg/kg PO QD
Procedure: (§2) The compound of the disclosure was evaluated in several different lung tumor xenograft models: HCC4006, SW1573 PRMT5-044, H1650, and A549 PRMT-034. […] 2021, incorporated by reference in its entirety.

MKN45 xenograft tumors = test: MKN45 gastric tumor xenograft, Example 9; conditions: Palbociclib 130 mg/kg PO QD
Procedure: Immunodeficient female nu/nu mice were implanted with 5×10^6 LU99 lung cancer cells in 50% Matrigel. Tumors were measured using calipers until they reached approximately 150-200 mm^3. Animals were randomized to receive A) vehicle (0.5% methylcellulose (4000 cps)/0.2% Tween80 in water), B) a PRMT5 inhibitor, C) CDK4/6 inhibitor, or D) the PRMT5 inhibitor and CDK4/6 inhibitor, all administered orally (PO) for 21 days. Tumor volume was measured twice a week (n=5/treatment group). Average tumor volume and standard error of the mean was calculated and plotted at each study day in GraphPad.

H1650 xenograft tumors = test: H1650 lung tumor xenograft, Example 5; conditions: Palbociclib 130 mg/kg PO QD
Procedure: as §2

[2] = system: A549 PRMT-034 xenograft tumors; test: A549 PRMT-034 lung tumor xenograft, Example 6; conditions: Palbociclib 130 mg/kg PO QD
Procedure: as §2

BXPC-3 xenograft tumors = test: BXPC-3 pancreatic tumor xenograft, Example 8; conditions: Palbociclib 130 mg/kg PO QD
Procedure: as §1

[3] = system: KRAS^G12C and CDKN2A/MTAP^DEL lung tumor xenograft LU99 model; test: LU99 lung tumor xenograft, Example 1 (MRTX9768 / palbociclib); conditions: palbociclib 130 mg/kg PO QD
Procedure: (§3) 2021, incorporated by reference in its entirety.
The CDK4/6 inhibitor used in this example was palbociclib administered at 130mg/kg once a day (QD). Palbociclib is 6-acetyl-8-cyclopentyl-5-methyl-2-[(5-piperazin-1-ylpyridin-2-yl)amino]pyrido[2,3-d]pyrimidin-7-one, and is sold as Ibrance® available from Pfizer Inc., New York, New York.

[4] = system: KRAS^G12C and CDKN2A/MTAP^DEL lung tumor xenograft LU99 model; test: LU99 lung tumor xenograft, Example 2 (MRTX7477 / palbociclib); conditions: palbociclib 130 mg/kg PO QD
Excerpt: as §3

[5] = Day 0, MRTX1719 100 mg/kg PO QD
[6] = Day 3, MRTX1719 100 mg/kg PO QD
[7] = Day 7, MRTX1719 100 mg/kg PO QD
[8] = Day 10, MRTX1719 100 mg/kg PO QD
[9] = Day 14, MRTX1719 100 mg/kg PO QD
[10] = Day 17, MRTX1719 100 mg/kg PO QD
[11] = Day 20, MRTX1719 100 mg/kg PO QD
[12] = Day 2, MRTX1719 100 mg/kg PO QD
[13] = Day 5, MRTX1719 100 mg/kg PO QD
[14] = Day 9, MRTX1719 100 mg/kg PO QD
[15] = Day 12, MRTX1719 100 mg/kg PO QD
[16] = Day 16, MRTX1719 100 mg/kg PO QD
[17] = Day 1, MRTX1719 100 mg/kg PO QD
[18] = Day 8, MRTX1719 100 mg/kg PO QD
[19] = Day 15, MRTX1719 100 mg/kg PO QD
[20] = Day 19, MRTX1719 100 mg/kg PO QD
[21] = Day 22, MRTX1719 100 mg/kg PO QD
[22] = Day 26, MRTX1719 100 mg/kg PO QD
[23] = Day 29, MRTX1719 100 mg/kg PO QD
[24] = Day 34, MRTX1719 100 mg/kg PO QD
[25] = Day 13, MRTX1719 50 mg/kg PO QD
[26] = Day 16, MRTX1719 50 mg/kg PO QD
[27] = Day 20, MRTX1719 50 mg/kg PO QD

Structure (SMILES): Cn1ncc(-c2ccc3c(=O)[nH]nc(CN)c3c2)c1-c1c(F)c(Cl)cc(OC2CC2)c1C#N [MRTX1719, (2M)-2-(4-(4-(aminomethyl)-1-oxo-1,2-dihydrophthalazin-6-yl)-1-methyl-1H-pyrazol-5-y1)-4-chloro-6-cyclopropoxy-3-fluorobenzonitrile]
- Tumor Volume, Mean [1, 5]: 149 mm^3
- Tumor Volume, Mean [1, 6]: 382 mm^3
- Tumor Volume, Mean [1, 7]: 519 mm^3
- Tumor Volume, Mean [1, 8]: 559 mm^3
- Tumor Volume, Mean [1, 9]: 563 mm^3
- Tumor Volume, Mean [1, 10]: 624 mm^3
- Tumor Volume, Mean [1, 11]: 603 mm^3
- Tumor Volume, Mean (HCC4006 xenograft tumors; [5]): 126 mm^3
- Tumor Volume, Mean (HCC4006 xenograft tumors; [12]): 150 mm^3
- Tumor Volume, Mean (HCC4006 xenograft tumors; [13]): 159 mm^3
- Tumor Volume, Mean (HCC4006 xenograft tumors; [14]): 154 mm^3
- Tumor Volume, Mean (HCC4006 xenograft tumors; [15]): 156 mm^3
- Tumor Volume, Mean (HCC4006 xenograft tumors; [16]): 159 mm^3
- Tumor Volume, Mean (HCC4006 xenograft tumors; [11]): 78 mm^3
- Tumor Volume, Mean (MKN45 xenograft tumors; [5]): 105 mm^3
- Tumor Volume, Mean (MKN45 xenograft tumors; [6]): 165 mm^3
- Tumor Volume, Mean (MKN45 xenograft tumors; [7]): 207 mm^3
- Tumor Volume, Mean (MKN45 xenograft tumors; [8]): 221 mm^3
- Tumor Volume, Mean (MKN45 xenograft tumors; [9]): 214 mm^3
- Tumor Volume, Mean (MKN45 xenograft tumors; [10]): 230 mm^3
- Tumor Volume, Mean (MKN45 xenograft tumors; [11]): 221 mm^3
- Tumor Volume, Mean (H1650 xenograft tumors; [5]): 146 mm^3
- Tumor Volume, Mean (H1650 xenograft tumors; [6]): 231 mm^3
- Tumor Volume, Mean (H1650 xenograft tumors; [7]): 471 mm^3
- Tumor Volume, Mean (H1650 xenograft tumors; [8]): 599 mm^3
- Tumor Volume, Mean (H1650 xenograft tumors; [9]): 625 mm^3
- Tumor Volume, Mean (H1650 xenograft tumors; [10]): 711 mm^3
- Tumor Volume, Mean (H1650 xenograft tumors; [11]): 635 mm^3
- Tumor Volume, Mean [2, 17]: 118 mm^3
- Tumor Volume, Mean [2, 18]: 169 mm^3
- Tumor Volume, Mean [2, 15]: 200 mm^3
- Tumor Volume, Mean [2, 19]: 210 mm^3
- Tumor Volume, Mean [2, 20]: 214 mm^3
- Tumor Volume, Mean [2, 21]: 221 mm^3
- Tumor Volume, Mean [2, 22]: 263 mm^3
- Tumor Volume, Mean [2, 23]: 288 mm^3
- Tumor Volume, Mean [2, 24]: 325 mm^3
- Tumor Volume, Mean (BXPC-3 xenograft tumors; Day 0, MRTX1719 50 mg/kg PO QD): 122 mm^3
- Tumor Volume, Mean (BXPC-3 xenograft tumors; Day 3, MRTX1719 50 mg/kg PO QD): 174 mm^3
- Tumor Volume, Mean (BXPC-3 xenograft tumors; Day 6, MRTX1719 50 mg/kg PO QD): 206 mm^3
- Tumor Volume, Mean (BXPC-3 xenograft tumors; Day 9, MRTX1719 50 mg/kg PO QD): 310 mm^3
- Tumor Volume, Mean (BXPC-3 xenograft tumors; [25]): 359 mm^3
- Tumor Volume, Mean (BXPC-3 xenograft tumors; [26]): 372 mm^3
- Tumor Volume, Mean (BXPC-3 xenograft tumors; [27]): 368 mm^3

Structure (SMILES): CC(=O)c1c(C)c2cnc(Nc3ccc(N4CCNCC4)cn3)nc2n(C2CCCC2)c1=O [palbociclib, 6-acetyl-8-cyclopentyl-5-methyl-2-[(5-piperazin-1-ylpyridin-2-yl)amino]pyrido[2,3-d]pyrimidin-7-one]
- Tumor Volume, Mean ([3]; Day 0, MRTX9768 100 mg/kg PO BID): 184.39 mm^3
- Tumor Volume, Mean ([3]; Day 3, MRTX9768 100 mg/kg PO BID): 247.02 mm^3
- Tumor Volume, Mean ([3]; Day 7, MRTX9768 100 mg/kg PO BID): 355.77 mm^3
- Tumor Volume, Mean ([3]; Day 10, MRTX9768 100 mg/kg PO BID): 482.60 mm^3
- Tumor Volume, Mean ([3]; Day 14, MRTX9768 100 mg/kg PO BID): 731.56 mm^3
- Tumor Volume, Mean ([3]; Day 17, MRTX9768 100 mg/kg PO BID): 914.41 mm^3
- Tumor Volume, Mean ([3]; Day 21, MRTX9768 100 mg/kg PO BID): 1148.44 mm^3
- Tumor Volume, Mean [1, 5]: 149 mm^3
- Tumor Volume, Mean [1, 6]: 319 mm^3
- Tumor Volume, Mean [1, 7]: 365 mm^3
- Tumor Volume, Mean [1, 8]: 378 mm^3
- Tumor Volume, Mean [1, 9]: 341 mm^3
- Tumor Volume, Mean [1, 10]: 391 mm^3
- Tumor Volume, Mean [1, 11]: 350 mm^3
- Tumor Volume, Mean (HCC4006 xenograft tumors; [5]): 127 mm^3
- Tumor Volume, Mean (HCC4006 xenograft tumors; [12]): 155 mm^3
- Tumor Volume, Mean (HCC4006 xenograft tumors; [13]): 143 mm^3
- Tumor Volume, Mean (HCC4006 xenograft tumors; [14]): 117 mm^3
- Tumor Volume, Mean (HCC4006 xenograft tumors; [15]): 115 mm^3
- Tumor Volume, Mean (HCC4006 xenograft tumors; [16]): 111 mm^3
- Tumor Volume, Mean (HCC4006 xenograft tumors; [11]): 100 mm^3
- Tumor Volume, Mean (MKN45 xenograft tumors; [5]): 106 mm^3
- Tumor Volume, Mean (MKN45 xenograft tumors; [6]): 158 mm^3
- Tumor Volume, Mean (MKN45 xenograft tumors; [7]): 236 mm^3
- Tumor Volume, Mean (MKN45 xenograft tumors; [8]): 264 mm^3
- Tumor Volume, Mean (MKN45 xenograft tumors; [9]): 330 mm^3
- Tumor Volume, Mean (MKN45 xenograft tumors; [10]): 434 mm^3
- Tumor Volume, Mean (MKN45 xenograft tumors; [11]): 474 mm^3
- Tumor Volume ([4]; Day 1, MRTX7477 200 mg/kg PO BID): 209.8 mm^3
- Tumor Volume ([4]; Day 5, MRTX7477 200 mg/kg PO BID): 215.9 mm^3
- Tumor Volume ([4]; Day 8, MRTX7477 200 mg/kg PO BID): 277.3 mm^3
- Tumor Volume ([4]; Day 12, MRTX7477 200 mg/kg PO BID): 359.4 mm^3
- Tumor Volume ([4]; Day 15, MRTX7477 200 mg/kg PO BID): 413.5 mm^3
- Tumor Volume ([4]; Day 19, MRTX7477 200 mg/kg PO BID): 675.9 mm^3
- Tumor Volume ([4]; Day 21, MRTX7477 200 mg/kg PO BID): 827.0 mm^3
- Tumor Volume ([4]; Day −2, MRTX7477 200 mg/kg PO BID): 133.4 mm^3
- Tumor Volume, Mean (H1650 xenograft tumors; [5]): 147 mm^3
- Tumor Volume, Mean (H1650 xenograft tumors; [6]): 268 mm^3
- Tumor Volume, Mean (H1650 xenograft tumors; [7]): 356 mm^3
- Tumor Volume, Mean (H1650 xenograft tumors; [8]): 493 mm^3
- Tumor Volume, Mean (H1650 xenograft tumors; [9]): 480 mm^3
- Tumor Volume, Mean (H1650 xenograft tumors; [10]): 589 mm^3
- Tumor Volume, Mean (H1650 xenograft tumors; [11]): 743 mm^3
- Tumor Volume, Mean [2, 17]: 118 mm^3
- Tumor Volume, Mean [2, 13]: 134 mm^3
- Tumor Volume, Mean [2, 18]: 155 mm^3
- Tumor Volume, Mean [2, 15]: 177 mm^3
- Tumor Volume, Mean [2, 19]: 189 mm^3
- Tumor Volume, Mean [2, 20]: 179 mm^3
- Tumor Volume, Mean [2, 21]: 186 mm^3
- Tumor Volume, Mean [2, 22]: 220 mm^3
- Tumor Volume, Mean [2, 23]: 255 mm^3
- Tumor Volume, Mean [2, 24]: 263 mm^3
- Tumor Volume, Mean (BXPC-3 xenograft tumors; Day 0, MRTX1719 50 mg/kg PO QD): 122 mm^3
- Tumor Volume, Mean (BXPC-3 xenograft tumors; Day 3, MRTX1719 50 mg/kg PO QD): 162 mm^3
- Tumor Volume, Mean (BXPC-3 xenograft tumors; Day 6, MRTX1719 50 mg/kg PO QD): 174 mm^3
- Tumor Volume, Mean (BXPC-3 xenograft tumors; Day 9, MRTX1719 50 mg/kg PO QD): 187 mm^3
- Tumor Volume, Mean (BXPC-3 xenograft tumors; [25]): 195 mm^3
- Tumor Volume, Mean (BXPC-3 xenograft tumors; [26]): 190 mm^3
- Tumor Volume, Mean (BXPC-3 xenograft tumors; [27]): 193 mm^3
